This is an account of results in PubChem BioAssay (NCI).

Some test systems named below: M14 melanoma; A549 NSCLC; A498 renal; HCC-2998 colon; SNB-75 CNS; HOP-62 NSCLC; TK-10 renal; UACC-257 melanoma; HCT-116 colon; CAKI-1 renal.
Experiment in all cases: NCI-60 cell line screen, 48 h

Several values for one entry are separate records, joined by “and”; a condition that tells them apart may be missing. Identical values can stand only once.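 Cultured in 96-well plates, cells were exposed to test compound for 48 hours across five concentrations. GI50: concentration for 50% inhibition of growth. TGI: total growth inhibition.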 Where only a bound is given, the exact number is not on record here.

Consider `O=C(O)C1c2ccccc2C(C(=O)O)c2ccccc21` (stereo not drawn), for which the TGI in the experiment with M14 melanoma, in the experiment on A549 NSCLC, in the experiment on A498 renal, in the experiment with HCC-2998 colon, in the experiment with SNB-75 CNS and in the experiment on HOP-62 NSCLC was over 100 µM throughout. Also, the TGI with TK-10 renal, with UACC-257 melanoma, with HCT-116 colon and with CAKI-1 renal was over 100 µM in each case.

For the molecule `CCC[CH2][Sn]([CH2]CCC)([O]C(=O)c1nccnc1N)[O]C(=O)c1nccnc1N`, the GI50 was 1.23 µM in the experiment with M14 melanoma; 3.52 µM in the experiment on A549 NSCLC; 0.819 µM with A498 renal; 1.21 µM in the experiment on HCC-2998 colon; 0.87 µM with SNB-75 CNS; 2.12 µM in the experiment with HOP-62 NSCLC. The GI50 in the experiment with TK-10 renal is 0.742 µM; in the experiment with UACC-257 melanoma it was 1.03 µM; in the experiment with HCT-116 colon, 1.1 µM; with CAKI-1 renal, 0.226 µM. The TGI in the experiment with M14 melanoma worked out at 2.49 µM; in the experiment on A549 NSCLC it was 12.7 µM; with A498 renal, 2.07 µM; in the experiment with HCC-2998 colon it was 2.45 µM; in the experiment on SNB-75 CNS, 2.12 µM; in the experiment with HOP-62 NSCLC, 3.57 µM. Also, the TGI in the experiment with TK-10 renal came to 2.02 µM; with UACC-257 melanoma, 2.23 µM; in the experiment with HCT-116 colon, 2.3 µM; in the experiment with CAKI-1 renal it was 1.77 µM.

Regarding `CCCN(CCC)CCCNC(=O)c1cc2c(-c3ccc(OC)c(OC)c3)nn(C)c2s1`, the GI50 in the experiment with M14 melanoma was 17.2 µM; in the experiment on A549 NSCLC, 36.5 µM; in the experiment with A498 renal, 3.06 µM; in the experiment on HCC-2998 colon, 18.8 µM; with SNB-75 CNS it was 12.3 µM; in the experiment with HOP-62 NSCLC, 37.2 µM. Besides, the GI50 in the experiment on TK-10 renal is 40.9 µM; in the experiment on UACC-257 melanoma, 17.3 µM; with HCT-116 colon, 17.7 µM; in the experiment on CAKI-1 renal it was 27.1 µM. For the same molecule, the TGI is 35 µM with M14 melanoma; over 100 µM in the experiment on A549 NSCLC; over 100 µM in the experiment with A498 renal; 37.7 µM in the experiment on HCC-2998 colon; 40.5 µM in the experiment on SNB-75 CNS; over 100 µM in the experiment on HOP-62 NSCLC. Further, the TGI with TK-10 renal is over 100 µM; in the experiment with UACC-257 melanoma, 34.4 µM; in the experiment on HCT-116 colon, 55.3 µM; in the experiment on CAKI-1 renal, over 100 µM.

With `OC(COc1cccc2ccccc12)CN1CCN(c2ccccc2)CC1` (stereo not drawn), the GI50 in the experiment on M14 melanoma was 15.5 µM; in the experiment with A549 NSCLC, 19.3 µM; in the experiment on A498 renal, 13.5 µM; in the experiment on HCC-2998 colon, 16.5 µM; in the experiment on SNB-75 CNS it was 13.7 µM; in the experiment with HOP-62 NSCLC it was 13.4 µM. For the same molecule, the GI50 is 13.6 µM with TK-10 renal, 16 µM in the experiment on UACC-257 melanoma, 13.4 µM with HCT-116 colon and 12.6 µM in the experiment on CAKI-1 renal. Moreover, the TGI with M14 melanoma turned out to be 29.7 µM; with A549 NSCLC, 36.6 µM; with A498 renal, 26.4 µM; in the experiment with HCC-2998 colon it was 30.7 µM; with SNB-75 CNS, 27.2 µM; in the experiment with HOP-62 NSCLC, 26.8 µM. Besides, the TGI in the experiment with TK-10 renal is 26.9 µM; in the experiment on UACC-257 melanoma it was 30.1 µM; with HCT-116 colon, 27 µM; with CAKI-1 renal, 27.2 µM.

Turning to `COC(=O)Nc1nc2cc3c(cc2s1)OCCO3`, the GI50 with M14 melanoma, with A549 NSCLC, with A498 renal, in the experiment with HCC-2998 colon, in the experiment on SNB-75 CNS and in the experiment on HOP-62 NSCLC was over 50 µM each time. Also, the GI50 with TK-10 renal, in the experiment with UACC-257 melanoma, in the experiment on HCT-116 colon and in the experiment with CAKI-1 renal was over 50 µM in each case. Besides, the TGI in the experiment with M14 melanoma, in the experiment on A549 NSCLC, with A498 renal, in the experiment on HCC-2998 colon, in the experiment with SNB-75 CNS and with HOP-62 NSCLC was over 50 µM in each case. Further, the TGI in the experiment with TK-10 renal, in the experiment on UACC-257 melanoma, with HCT-116 colon and in the experiment with CAKI-1 renal was over 50 µM throughout.

Regarding `O=C1/C(=C/c2ccccc2)CCC/C1=C\c1ccccc1`, the GI50 in the experiment on M14 melanoma is 2.96 µM; in the experiment with A549 NSCLC it was 7.66 µM and 17.5 µM; in the experiment with HCC-2998 colon, 2.72 µM; in the experiment with SNB-75 CNS, 6.22 µM; with HOP-62 NSCLC, 7.64 µM; with TK-10 renal, 6.12 µM. Also, the GI50 in the experiment on UACC-257 melanoma was 6.3 µM and 13.1 µM; with CAKI-1 renal, 7.03 µM and 17 µM. Besides, the TGI in the experiment with M14 melanoma is 12.9 µM and 19 µM and 7.88 µM; in the experiment with A549 NSCLC it was 17.8 µM and 45.7 µM and 42.5 µM; in the experiment on A498 renal, 29.8 µM and 29.2 µM; with HCC-2998 colon it was 25.8 µM and 7.64 µM; in the experiment with SNB-75 CNS, 13.2 µM and 51.2 µM and 52.1 µM; in the experiment with HOP-62 NSCLC, 13.6 µM and 40 µM and 41.1 µM. For the same molecule, the TGI was 11.9 µM and 33.2 µM and 40 µM in the experiment on TK-10 renal; 11.7 µM and 39.8 µM and 33.3 µM in the experiment on UACC-257 melanoma; 5.86 µM and 3.09 µM and 3.33 µM in the experiment with HCT-116 colon; 13 µM and 46.4 µM and 44.7 µM in the experiment with CAKI-1 renal.

For the molecule `Cc1cc(C(=O)N2CCN(Cc3ccccc3)CC2)c(C)o1`, the TGI in the experiment on M14 melanoma, in the experiment with A549 NSCLC, with A498 renal, in the experiment on HCC-2998 colon, in the experiment with SNB-75 CNS and with HOP-62 NSCLC was over 100 µM throughout. Moreover, the TGI with TK-10 renal, in the experiment with UACC-257 melanoma, in the experiment on HCT-116 colon and in the experiment with CAKI-1 renal was over 100 µM throughout.

Regarding `C=C1CCC2C3(C)COC(c4ccc(SC)cc4)OC3CCC2(C)C1C/C=C1/C(=O)OCC1O` (stereo not drawn), the GI50 in the experiment with M14 melanoma was 6.53 µM; in the experiment on A549 NSCLC, 5.31 µM; with A498 renal, 8.64 µM; in the experiment with HCC-2998 colon, 11.9 µM; in the experiment with SNB-75 CNS it was 10.1 µM; with HOP-62 NSCLC, 17.3 µM. In addition, the GI50 is 14 µM in the experiment on TK-10 renal, 4.17 µM in the experiment on UACC-257 melanoma, 1.76 µM in the experiment on HCT-116 colon and 11.2 µM in the experiment with CAKI-1 renal. Further, the TGI came to 17.7 µM with M14 melanoma; 18.4 µM in the experiment with A549 NSCLC; 22.4 µM with A498 renal; 24.9 µM in the experiment on HCC-2998 colon; 21.7 µM with SNB-75 CNS; 32.8 µM in the experiment with HOP-62 NSCLC. Besides, the TGI in the experiment with TK-10 renal was 29.9 µM; with UACC-257 melanoma it was 17.4 µM; in the experiment with HCT-116 colon, 3.44 µM; with CAKI-1 renal it was 28.2 µM.

Take `CC(=O)OC1CCC2(C)C(=CCC3C2CCC2(C)C(C(C)C(=O)O)CCC32)C1` (stereo not drawn): the TGI in the experiment with M14 melanoma, in the experiment on A549 NSCLC, with A498 renal, with HCC-2998 colon, in the experiment on SNB-75 CNS and with HOP-62 NSCLC was over 100 µM in each case. For the same molecule, the TGI in the experiment with TK-10 renal, in the experiment on UACC-257 melanoma, with HCT-116 colon and in the experiment with CAKI-1 renal was over 100 µM in each case.
